Assay results from paper PMC6130489, “Caffeic acid methyl and ethyl esters exert potential antidiabetic effects on glucose and lipid metabolism in cultured murine insulin-sensitive cells through mechanisms implicating activation of AMPK” (Pharmaceutical Biology, 2017).

Assays:
[1] = test system: AMPK; test: Western immunoblot phospho-AMPK in L6 myotubes; format: cell-based, rat; details: AICAR 30 min (2 mM per Figure 1 legend, 1 mM per methods)
Experimental: L6 cells myotubes, H4IIE cells and 3T3-L1 adipocytes were treated with either CAME, CAEE (50 μM each) or vehicle (DMSO) for 18 h. Insulin (100 nM) or aminoimidazole carboxamide ribonucleotide (AICAR; 1 mM) were added to some vehicle-treated wells 30 min prior to the end of the treatment and served as the positives controls. Protein content was assayed by the bicinchoninic acid method (Thermo Scientific Pierce Protein Research, Rockford, IL) standardized to bovine serum albumin. Western immunoblotting was performed as described elsewhere (Eid et al. [2010]). Membranes were incubated overnight with phospho-AMPK, phospho-Akt, GLUT4, GLUT1 and β-actin antibodies (1:1000 dilution, Cell Signalling Technology, Danvers, MA), or with PPAR-γ, SREBP-1 (1:200, Santa Cruze Biotechnology, Santa Cruz, CA), followed by incubation with HRP-coupled secondary antibody (1:10,000) for 1 h. Immunoreactive bands were visualized by enhanced chemiluminescence and quantified by the Scion Image program (Scion Corporation, Frederick, MD). Experiments were repeated on 3 different passages of cells, each passage containing all conditions in parallel.
Figure 1. (A) CAME and CAEE increase ^3H-deoxyglucose uptake in L6 GLUT4myc myotubes. Cells were treated with 50 μM of either CAME, CAEE, or with vehicle (0.1% DMSO) for 18 h. 100 nM insulin served as the positive control and was applied for the last 15 min of the treatment in vehicle-treated cells. Glucose uptake was performed as described in Materials and Methods section. […] Cells were treated as previously described, cell surface GLUT4myc was detected by an enzyme-linked colorimetric assay. […] Results represent the means ± SEM of three independent experiments, and 3-4 cells were analyzed for each condition per experiment. *Indicates a significant (p ≤ 0.05) difference, **(p < 0.01) from the vehicle control group as assessed by ANOVA. […] Data are expressed as (D) phospho-AMPK/β-actin, (E) GLUT4/β-actin and (F) GLUT1/β-actin and are given as mean ± SEM from 3 experiments. *p < 0.05 indicates a significant difference, **(p < 0.01) from the vehicle control group.

[2] = target: T1, G6Pase (Rattus norvegicus, UniProt P43428); test: Enzymatic activity of G6Pase in H4IIE cells; format: cell-based; details: insulin 100 nM, same treatment period, relative to DMSO
T1 sequence (P43428 1-357): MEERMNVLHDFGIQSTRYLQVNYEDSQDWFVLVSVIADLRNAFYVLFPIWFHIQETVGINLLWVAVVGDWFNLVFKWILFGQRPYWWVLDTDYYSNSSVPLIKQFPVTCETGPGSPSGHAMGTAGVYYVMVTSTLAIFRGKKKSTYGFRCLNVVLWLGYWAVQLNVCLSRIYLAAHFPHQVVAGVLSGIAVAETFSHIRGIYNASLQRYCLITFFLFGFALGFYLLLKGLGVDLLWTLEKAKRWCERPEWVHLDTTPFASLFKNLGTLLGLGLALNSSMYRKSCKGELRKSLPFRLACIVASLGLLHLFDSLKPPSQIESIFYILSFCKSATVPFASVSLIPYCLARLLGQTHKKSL
Experimental: At 90% confluence, H4-IIE cells were treated with 12.5, 25, 50 and 100 μM of either CAME or CAEE in serum free medium. Vehicle (0.1% DMSO)-treated and 100 nM insulin-treated cells served as the negative and positive control respectively. The activity of G6Pase was assessed by measuring the rate of glucose production in the presence of a non-limiting amount of glucose-6-phosphate (G6P) as described elsewhere (Nachar et al. [2013]). Total glucose production was measured using a commercial glucose assay kit (AutoKit Glucose; Wako Diagnostics, Richmond, VA). Protein content was measured using bicinchoninic acid (BCA) assay (Simpson [2008]) and G6Pase activity was expressed in relation to protein content.
Figure 2. CAME and CAEE inhibit G6Pase by mechanisms involving activation of AMPK. (A) H4IIE hepatocytes were treated for 16 h with several concentrations (12.5, 25, 50 and100 μM) of either CAME or CAEE and G6Pase activity was determined colorimetrically using a commercial glucose assay kit as described under Materials and Methods. Data are expressed relative to vehicle control (0.1% DMSO, 0% inhibition). Insulin (100 nM) applied for similar treatment period served as the positive control. (B and C) Cells were treated with the optimal nontoxic concentration of either CAME, CAEE (50 μM each), or DMSO (0.1%) for 18 h, insulin (100 nM), AICAR (1 mM) applied for 30 min served as the positive controls. (B) The upper blot was probed with anti-phospho-AMPK antibody (Thr 172) and the lower blot was probed with anti-pan AMPK. (C) Blots were probed with antibodies against phospho-Akt (Ser 473) or pan-Akt. Immunoblots are representative of three independent experiments with similar results. (D) Data are expressed as phospho-AMPK/pan-AMPK and are given as mean ± SEM from 3 experiments. *p < 0.05 indicates a significant difference, **(p < 0.01), ***(p < 0.001) from the vehicle control group.

[3] = test system: L6 GLUT4myc myotubes; test: 3H-Deoxyglucose uptake assay; format: cell-based, rat; details: insulin 100 nM, 15 min
Experimental: Measurement of glucose uptake was performed as previously described (Eid et al. [2010]) using [^3H]-2-deoxyglucose (TRK-383, Amersham Biosciences, Buckinghamshire, UK). Nonspecific uptake was measured in the presence of cytochalasin B (10 μM) and was subtracted from all values.
(§1) Figure 1. (A) CAME and CAEE increase ^3H-deoxyglucose uptake in L6 GLUT4myc myotubes. Cells were treated with 50 μM of either CAME, CAEE, or with vehicle (0.1% DMSO) for 18 h. 100 nM insulin served as the positive control and was applied for the last 15 min of the treatment in vehicle-treated cells. Glucose uptake was performed as described in Materials and Methods section. (B) CAME and CAEE stimulate GLUT4 translocation in L6 GLUT4myc myotubes. Cells were treated as previously described, cell surface GLUT4myc was detected by an enzyme-linked colorimetric assay. By the end of the treatment, L6- GLUT4myc cells were labeled with anti-c-myc antibody as described in Materials and Methods section. Results represent the means ± SEM of three independent experiments, and 3-4 cells were analyzed for each condition per experiment. *Indicates a significant (p ≤ 0.05) difference, **(p < 0.01) from the vehicle control group as assessed by ANOVA. […] L6 myotubes treated with CAME or CAEE (50 μM each), DMSO (0.1%) for 18 h. Insulin (100 nM) and AICAR (2 mM) both applied for 30 min and served as positive controls. Immunoblots were probed with anti phospho-AMPK (Thr 172), anti-GLUT4, anti-GLUT1 and anti-phospho-Akt (Ser 473) antibodies as described in Materials and Methods section. Anti-β-actin antibody was used as a loading control. Representative blots are shown in panel C. Data are expressed as (D) phospho-AMPK/β-actin, (E) GLUT4/β-actin and (F) GLUT1/β-actin and are given as mean ± SEM from 3 experiments. *p < 0.05 indicates a significant difference, **(p < 0.01) from the vehicle control group.

[4] = test system: GLUT4myc; test: Cell surface GLUT4myc (GLUT4 translocation), OPD assay; format: cell-based, rat; details: insulin 100 nM, 15 min; L6-GLUT4myc
Experimental: L6-GLUT4myc myotubes grown in 24-well plates were serum-starved for 4 h and were incubated with either CAME or CAEE (50 μM) for 18 h or insulin (100 nM) for 15 min. Cell-surface GLUT4myc levels were measured by an antibody-coupled colorimetric assay (Niu et al. [2003]) using O-phenylenediamine dihydrochloride (OPD) reagent (1 mL/well) (Sigma-Aldrich, St. Louis, MO), an anti-c-myc antibody (1:200 dilution; Santa Cruz Biotechnology, Santa Cruz, CA) and horseradish peroxidase (HRP)-conjugated goat anti-rabbit IgG at 4 °C (1:1000 dilution; Cell Signaling Technologies, Danvers, MA).
as §1, with “Anti-β-actin antibody was used as a loading control. Representative blots are shown in panel C.” left out

## NC(=O)c1ncn([C@@H]2O[C@H](CO)[C@@H](O)[C@H]2O)c1N [AICAR, aminoimidazole carboxamide ribonucleotide, reference compound]
[1]
  AMPK phosphorylation, fold increase over DMSO: 8.5 fold

## insulin: Insulin from bovine pancreas, positive control (100 nM)
[2]
  inhibition of G6Pase activity: 70.7 ± 2.3%
[3]
  glucose uptake, percent of DMSO control: 175 ± 13%
[3]; basal (DMSO) 10.1 ± 0.5
  2-deoxyglucose uptake rate: 17.7 ± 1.2 pmol/min/mg protein
[4]
  GLUT4 translocation, fold relative to DMSO: 1.73 ± 0.18 fold
